Data set [1] deals with climbing behaviour in mice, induced by apomorphine. Put plainly: Apomorphine climbing test (ACT) in mice. It counts as in vivo. As to conditions: test compound s.c., 0.75 mg/kg apomorphine HCl s.c. after 30 min, climbing scored at 10 and 20 min. The source says:
The ability of dopamine receptor antagonists to inhibit the behavioural effects in rodents caused by dopamine agonists such as apomorphine is a well established criterion for predicting the antipsychotic efficacy of these drugs in man (see e.g. W. C. Bowman and M. J. Rand, Textbook of Pharmacology, 2nd ed., 1980, 15, 6). A particularly relevant test in this respect is the apomorphine climbing test (ACT) which measures the ability of a dopamine antagonist to inhibit the climbing behaviour in mice, induced by the subcutaneous or oral administration of apomorphine. Activity in this test, following systemic and oral administration, has been widely used as a predictor of antipsychotic activity i.e. anti-schizophrenic activity (see e.g. J. T Strupczewski et.al., J. Med. Chem., 1995, 38, 1119). Mice treated with apomorphine HCl tend to adopt a vertical position along the wall of a wire mesh cylinder, standing or climbing. This climbing behaviour is considered to be elicited by apomorphine-mediated stimulation of dopamine receptors. […] Test compounds which modulate this climbing behaviour may have antipsychotic activity. The various treatments are randomly distributed over the mice. Each experiment consists of 1+n treatment groups: 1 being a control group of 12 mice receiving apomorphine and vehicle subcutaneously or being a control group of 12 mice receiving apomorphine subcutaneously and vehicle orally; n being (usually 4) compound groups of 12 mice receiving apomorphine and test compound subcutaneously or being compound groups of 12 mice receiving apomorphine subcutaneously and test compound orally.
Experiments are performed in 3 runs of 20 mice each. […]
At 10 min after the treatment with apomorphine the climbing behaviour of each mouse is observed and expressed as a score, according to the following grade: […]
At 20 min after the treatment with apomorphine the climbing behaviour is observed and scored again. For each treatment group the mean score per mouse is determined. […] The final result per group is expressed as the percentage over the control group. […]

Data set [2] concerns catalepsy in rats. To be noted: rat, in vivo.
Method: (§1) Male Wistar rats (100-125 g, Olac UK) were used for catalepsy experiments. Catalepsy was assessed as described previously (Broekkamp et al, Naunyn-Schmiedeberg's Arch. Pharmacol. 338, 191 1988). Briefly, rats were tested in 6 different observation trials in which the animals were placed in abnormal postures and scored positively with one point for maintaining the imposed posture for 10 s. The imposed postures were: vertical clinging to a grid, upright standing with a high support for the front paws, extension of hindlegs, placement on back, placement of spatula in the mouth and rotation in a wire mesh cylinder.
(§2) Theoretically a maximum score of 6 can be reached. Catalepsy was assessed at 60 and 120 minutes after drug administration. The data were evaluated by 2 way ANOVAR followed by a Newman Kools post hoc test and ED50 values calculated (Table II).
Data set [3] has as its system catalepsy in rats. Briefly: Catalepsy in rats. To be noted: male Wistar rats; catalepsy assessed at 60 and 120 minutes after drug administration.
Method: as §1, §2

Where two headings read alike, the source gives them in different places.

The term melting point denotes the temperature of the solid-liquid transition.

`CCc1csc(C(=C2CCN(CCCC(=O)N3CCCC3)CC2)c2ccc(F)cc2)c1.Cl.Cl` showed a melting point of 167.4 °C.

As for `Cc1csc(C(=C2CCN(CCCNC(=O)c3ccccc3)CC2)c2ccc(F)cc2)c1.Cl`, the melting point was in the range of 95 to 97 °C.

`Cc1ccc(C(=O)NCCN2CCC(=C(c3ccc(F)cc3)c3cc(C)cs3)CC2)cc1.O=C(O)C(=O)O` showed a melting point of 189 to 191 °C.

With `Cc1ccc(C(=O)N(C)CCN2CCC(=C(c3ccc(F)cc3)c3cc(C)cs3)CC2)cc1`, the melting point lay in the range of 114 to 116 °C.

In the case of `Cc1csc(C(=C2CCN(CCNC(=O)C3CC3)CC2)c2ccc(F)cc2)c1.O=C(O)C(=O)O`, the melting point lay within 98 to 101 °C.

Regarding `Cc1csc(C(=C2CCN(CCCC(=O)N3CCCCC3)CC2)c2ccc(F)cc2)c1.O=C(O)C(=O)O` [Compound 2l, 1-[4-[4-[(4-fluorophenyl)(4-methylthien-2-yl)methylene]piperidin-1-yl]-1-oxobutyl]-piperidine (1:1) ethanedicarboxylate], the “ACT(ED50)” value in data set [1] came out at 0.3 mg/kg.

For `Cc1csc(C(=C2CCN(CCCC(=O)N3CCCC3)CC2)c2ccc(F)cc2)c1.Cl.Cl` [Compound 2m, 1-[4-[4-[(4-fluorophenyl)(4-methylthien-2-yl)methylene]piperidin-1-yl]-1-oxobutyl]-pyrrolidine.dihydrochloride], the “CATR (ED50)” value with catalepsy in rats [2] is given as more than 7 mg/kg. In data set [1], the “ACT(ED50)” value is reported as 0.14 mg/kg.

In the case of `Cc1csc(C(=C2CCN(CCCC(=O)N3CCCCC3)CC2)c2cccc(F)c2)c1.Cl` [Compound 2n, 1-[4-[4-[(3-fluorophenyl)(4-methylthien-2-yl)methylene]piperidin-1-yl]-1-oxobutyl]-piperidine.hydrochloride], the “ACT(ED50)” value in data set [1] was found to be 0.34 mg/kg. In the data set on catalepsy in rats [3], the “CATR (ED50)” value was more than 17 mg/kg.

The record behind these values is US6365604B1, “Antipsychotic substituted piperidine derivatives” (Akzo Nobel NV, priority 1997, dated 2002).
